From patent US10196601B2, “Cell culture medium and process for controlling α-amidation and/or C-terminal amino acid cleavage of polypeptides” (LEK PHARMACEUTICALS D.D., priority 2013, dated 2019) come the findings set out here.

In data set [1] the test system is PAM enzyme. As to the kind of experiment: amount of C-terminal α-amidated Pro of the expressed antibody (in vivo PAM activity), SF system. The class given is cell-based, Chinese hamster. On the procedure:
(§1) Experiments (using different illustrative glycoproteins) were performed in shake flask (SF) systems, where […] SFs with a final volume of 125 ml were used. All experiments started by thawing of a research working cell bank (rWCB), such as CHO cell line DP-12 (CHO DP-12 clone #1934 [CHO DP-12, clone #1934 aIL8.92 NB 28605/14] (ATCC® CRL-12445™) producing recombinant human anti-IL-8 or CHO-SSF cells expressing a monoclonal antibody directed to tumour necrosis factor, TNF (see PCT/EP2011/074181 for further details) followed by several subcultivations under standard conditions according to manufacture instructions until enough cells for the inoculation were available For all experiments, a 14 days generic fed batch fermentation was used and a generic feeding regime comprising feeding of glucose, glutamine and amino acids was performed. All SFs were incubated in a shaker incubator (Kuhner, Switzerland) at the following conditions: temperature of 36.5° C., CO2=10% and shaking speed 200 rpm.
(§2) At the end of 14 days of BR and SF bioprocesses (i.e., on day 14), harvests were sampled to 50 ml centrifuge tubes. […] Purification was done either using AKTA chromatography system with 1 ml HiTrap column (GE Healthcare, cat. no. 11-0034-93) or TECAN Freedom EVO pipetting station with 200 μl RoboColumns (Atoll, cat. no. 01050408R).
(§3) To measure the amount of C-terminal α-amidated Pro and the amount of C-terminal Lys, Cation Exchange Chromatography (CEX) was performed according to the laboratory procedure. Main charged variants were designated as 0K, pseudo 1K (1+) and pseudo 2K (2+). The positive charge refers to the Lys or α-amidated Pro at the C-terminus of the heavy chain. Charged variants (Lys, α-amidated Pro) were differentiated by CP cleavage of C-terminal Lys followed by the same CEX analysis. Structures eluting before the main three variants were designated as AP (acidic peaks) and those eluting after them as BP (basic peaks).
(§4) The experiment was performed in 500 ml SF with a final volume of 125 ml. After 14 days of fed batch bioprocess, harvests were collected, centrifuged, sterile filtered through a PES membrane and immediately subjected to a single step affinity chromatography (AC) purification and a subsequent analysis of C-terminal α-amidation by […]. Design Expert version 7.1.3 (Stat-Ease, Inc., Minneapolis, USA) was used to build the response surface design and to perform the statistical analysis of the experimental results. A MinRes IV design was used to determine the influence of the tested trace elements on cell productivity, C-terminal α-amidation and C-terminal carboxypeptidation of the investigated monoclonal antibody. Analyzed design expert (Stat-Ease, Inc., Minneapolis, USA) responses included end of fed-batch titer, amount of C-terminal α-amidated Pro and amount of C-terminal Lys.
(§5) The experiment was performed in 500 ml SF with a final volume of 125 ml. After 14 days of fed batch bioprocess, harvests were collected, centrifuged, sterile filtered through a PES membrane and immediately subjected to a single step AC purification and a subsequent analysis of C-terminal α-amidation by […].
(§6) After performing the above described analytical steps, the measured values were inserted into the DOE program and analyzed. The α-value of statistical significance was set to 0.100, which means that factors with a P-value higher than 0.100 were excluded from the statistical mode since they were non-significant.

The subject of data set [2] is CHO cells. Nature of the data set: cell viability in SF culture (trypan blue exclusion). The following applies: experiment 2, SF; selenium 3 μM (data not shown). The class given is cell-based, Chinese hamster. The protocol: Experiments (using different illustrative glycoproteins) were performed in shake flask (SF) systems, where […] SFs with a final volume of 125 ml were used.
as §5

Data set [3] concerns CHO cells expressing a monoclonal antibody. As to the kind of experiment: end of fed-batch titer in shake flask (SF) fed batch culture. The class given is cell-based, Chinese hamster. On the procedure:
as §1, §4
Effects that were above the Bonferroni limit were certainly significant and effects that were above the t-Value limit were possibly significant. Effects that were below the t-Value limit were not selected as they were not significant. After selecting significant effects, the ANOVA statistical program was employed to confirm that only statistically significant effects were included in the model.
as §5, §6

Data set [4] has the same test system. Nature of the data set: titer in 5 L bioreactor (BR) fed batch culture. The note with it: 5 L BR. The class given is cell-based, Chinese hamster. On the procedure: (§7) All experiments were performed in 5 L BRs.
The test system of data set [5] is PAM enzyme. Nature of the data set: amount of C-terminal α-amidated Pro (in vivo PAM activity), BR system. The data set is classed as cell-based, Chinese hamster. The note with it: 5 L BR. On the procedure: as §2, §3, §7
Data set [6] has as its system CHO cells. The note with it: 5 L BR.
Procedure: All results were finally confirmed in a bioreactor (BR) system, where 5 L glass bioreactors were used.
In both the SF and BR system, the cell growth and cell viability were measured with the Vi-Cell XR analyzer (Beckman Coulter) using the trypan blue exclusion method for cell viability determination and automated cell counting for determination of the cell concentration. The monoclonal antibody content was determined by affinity liquid chromatography (ALC). A calibration curve was made by diluting the generic reference. […] The results were expressed in gram (g) of protein per liter (L) of harvest.
The obtained SF results were finally also tested in a bioreactor (BR) environment. All experiments were performed in 5 L BRs.
Data set [7] has as its system CP enzyme. Nature of the data set: amount of C-terminal Lys of the expressed antibody (in vivo CP activity), SF system. The class given is cell-based, Chinese hamster. On the procedure: as §1, §2, §3, §4, §5, §6
The subject of data set [8] is CP enzyme. Nature of the data set: amount of C-terminal Lys (in vivo CP activity), BR system. The class given is cell-based, Chinese hamster. The following applies: 5 L BR. The protocol:
as §2, §3, §7
To test the effect of zinc on the CP activity, three different zinc chloride concentrations were tested, namely 3.7 μM, 11 μM and 22 μM. […] In regard to productivity, a constant drop of productivity was measured with the decrease of the zinc concentration.

Molecules are shown by their SMILES. Where two headings read alike, the source gives them in different places.

With `[Cl][Cu][Cl]` [copper, copper chloride], the “increase of amount of C-terminal α-amidated Pro” value with PAM enzyme [1] (experiment 1, SF, 10-fold increased copper (FIG. 4)) is recorded as 2.5%. Moreover, the “amount of C-terminal α-amidated Pro” value with PAM enzyme [1] (experiment 2, DOE model, copper 0.06 μM) is 2.1%; in the data set with PAM enzyme [1] (experiment 2, DOE model, copper 0.18 μM), 2.2%.

On to `O=[Se]([O-])[O-].[Na+].[Na+]` [selenium, sodium selenite], for which the viability entry in the data set with CHO cells [2] was “below 80%”. For the same compound, the titer in data set [3] (experiment 1, SF, selenium 0.017 μM) is 0.4 g/L. Moreover, the effect on titer result in data set [3] (experiment 2, SF, selenium above 3 μM (FIG. 7)) is listed as “titer decrease”. The titer decrease in data set [4] (2.31 μM versus 0.17 μM selenium (FIG. 11B)) amounted to 1 g/L. For the same compound, the “C-terminal α-amidated Pro” value in the data set with PAM enzyme [5] (0.17 μM selenium (FIG. 12)) was 9.3%; in the data set on PAM enzyme [5] (2.31 μM selenium (FIG. 12)), 2.25%. For the same compound, the “amount of C-terminal α-amidated Pro” value came to 4.5% in the data set with PAM enzyme [1] (experiment 1, SF, 10-fold increased selenium (FIG. 4)); 6.5% in the data set with PAM enzyme [1] (experiment 1, SF, before 10-fold increase of selenium (FIG. 4)); 2.2% in the data set on PAM enzyme [1] (experiment 2, selenium 0.17 μM (FIG. 8)); 1.26% in the data set with PAM enzyme [1] (experiment 2, selenium 3.00 μM (FIG. 8)).

As for `[Cl-].[Cl-].[Zn+2]` [zinc, zinc chloride], the titer was 0.4 g/L in data set [3] (experiment 1 (MinRes IV), SF, 14 days fed batch, zinc 2.201 μM); 0.6 g/L in data set [3] (experiment 1, SF, zinc 22.012 μM); 0.4 g/L in data set [3] (experiment 2 (central composite design), DOE model, zinc 7 μM (FIG. 7)); “above 0.6 g/L” in data set [3] (experiment 2, DOE model, zinc 12 μM (FIG. 7)). For the same compound, the cell culture growth result in the data set on CHO cells [6] (3.7 μM zinc (FIG. 13A)) was “significantly lower growth”; in the data set on CHO cells [6] (11 μM compared with 22 μM zinc (FIG. 13A)) it was “well comparable”. Also, the “amount of C-terminal Lys” value with CP enzyme [7] (confirmation, SF, three parallels, 2.3 μM zinc (FIG. 10B)) is reported as 15.97%±0.79%; with CP enzyme [7] (confirmation, SF, three parallels, unchanged in-house medium, 22 μM zinc (FIG. 10B)), 1.99%±0.08%; with CP enzyme [7] (experiment 1, SF, 10-fold increased zinc (FIG. 6)), 8.5%; with CP enzyme [7] (experiment 1, SF, before 10-fold increase of zinc (FIG. 6)), 22%; with CP enzyme [7] (experiment 2, DOE model, zinc 0.15 μM (FIG. 9)) it was 15%; in the data set with CP enzyme [7] (experiment 2, DOE model, zinc 5.00 μM (FIG. 9)) it was 5%. Further, the final titer in data set [4] (highest zinc concentration, 22 μM (FIG. 13B)) worked out at 3.86 g/L; in data set [4] (lowest zinc concentration, 3.7 μM (FIG. 13B)), 1.86 g/L; in data set [4] (zinc 11 μM (FIG. 13B)), 2.90 g/L. Moreover, the “C-terminal Lys” value in the data set on CP enzyme [8] (3.7 μM zinc (FIG. 14)) is reported as 6%; with CP enzyme [8] (22 μM zinc (FIG. 14)) it was 3.15%.
